Results: article PMC6274398, “Three Novel Triterpenoids from Taraxacum officinale Roots” (Molecules, 2016)
Like-named read-outs stand apart in the source and are kept apart here.

Assays:
[1] = test system: NO production in RAW 264.7 mouse macrophages stimulated by lipopolysaccharide (LPS); test: Inhibitory assay of NO production (Griess) in LPS-stimulated RAW264.7 cells; assay type: cell-based; conditions: for IC50 / activity at 1 µM / activity at 3 µM / activity at 10 µM / activity at 30 µM: Mus musculus; for IC50: read-out: IC50 (inhibition of NO production); for activity at 1 µM / activity at 3 µM / activity at 10 µM / activity at 30 µM: read-out: Produced NO %; for NO inhibitory activity (in words): 1–30 μM tested
Description: An inhibitory assay of NO production was examined in accordance with a previously reported method with minor modifications. Briefly, RAW264.7 cells (5 × 10^4 cells in 100 μL) were seeded on a 96-well microplate and incubated for 24 h. DMEM-containing test samples (100 μL total volume, final concentration of 30, 10, 3, or 1 μM) dissolved in DMSO (final concentration 0.2%) and LPS (final concentration of 5 μg/mL) was added. After being treated for 24 h, the supernatant of the culture medium was transferred to another 96-well microplate, and 50 μL of 0.15% N-(1-naphtyl)ethylenediamine in H2O and 1.5% sulfanilamide in 7.5% phosphoric acid were then added. After being incubated for 30 min, absorbance in each well was read at 570 nm using a microplate reader. The optical density of vehicle control cells was assumed to be 100%

[2] = test system: RAW264.7 cells; test: RAW264.7 cell proliferation / cell viability (MTT); assay type: cell-based, mouse; conditions: for Cell Viavility %: 24 h, MTT, vs DMSO (100%), mean ± S.E., n=4
Description: RAW264.7 cell proliferation was examined in accordance with a previously reported method. Briefly, RAW264.7 cells (5 × 10^4 cells in 100 μL) were seeded on a 96-well microplate and incubated for 24 h. Dulbecco's modified eagle's medium (DMEM)-containing test samples (100 μL total volume, final concentration of 30, 10, 3, or 1 μM) dissolved in dimethyl sulfoxide (DMSO, final concentration 0.2%) was added. After being treated for 24 h, thiazolyl blue tetrazolium bromide (MTT) solution was added. After a 3-h incubation, 20% sodium dodecyl sulfate in 0.1 M HCl was added to dissolve the formazan produced in the cells. Absorbance in each well was read at 570 nm using a microplate reader. The optical density of vehicle control cells was assumed to be 100%.

[3] = RAW264.7, 1 μM, LPS 5 μg/mL, 24 h, vs DMSO (100%), mean ± S.E., n=4
[4] = RAW264.7, 3 μM, LPS 5 μg/mL, 24 h, vs DMSO (100%), mean ± S.E., n=4
[5] = RAW264.7, 10 μM, LPS 5 μg/mL, 24 h, vs DMSO (100%), mean ± S.E., n=4
[6] = RAW264.7, 30 μM, LPS 5 μg/mL, 24 h, vs DMSO (100%), mean ± S.E., n=4

SMILES	melting point	IC50 ([1]; RAW264.7, 24 h)	activity at 1 µM ([1]; RAW264.7, 24 h)	activity at 3 µM ([1]; RAW264.7, 24 h)	activity at 10 µM ([1]; RAW264.7, 24 h)	activity at 30 µM ([1]; RAW264.7, 24 h)	Cell Viavility % ([2]; 1 μM)	Cell Viavility % ([2]; 3 μM)	Cell Viavility % ([2]; 10 μM)	Cell Viavility % ([2]; 30 μM)	activity at 1 µM [1, 3]	activity at 3 µM [1, 4]	activity at 10 µM [1, 5]	activity at 30 µM [1, 6]	IC50 ([1]; LPS-stimulated RAW264.7, 24 h)	NO inhibitory activity (in words) [1]	Cytotoxicity at effective concentration (in words) ([2]; at 1–10 μM)	Cytotoxicity (in words) ([2]; at higher concentrations)	Cytotoxicity (in words) ([2]; at 1–30 μM)	Cytotoxicity at effective concentration (in words) ([2]; at 1 and 3 μM)
CC(=O)O[C@H]1CC[C@]2(C)[C@H]3CC[C@@]4(C)[C@H]([C@H](C)CCC=C(C)C)CC[C@]4(C)C3=CC(=O)[C@H]2C1(C)C [Compound 3, 3β-acetoxyeupha-7,24-dien-6-one]	140 to 143 °C	> 30 µM	101 ± 2.6%	93.7 ± 1.4%	93.3 ± 1.6%	93.1 ± 0.9%	(100.0 ± 1.4) %	(94.6 ± 8.2) %	(104.2 ± 0.7) %	(103.8 ± 1.0) %										
CC(=O)O[C@H]1CC[C@]2(C)[C@H]3CC[C@@H]4C5=C(C(C)C)C(=O)C[C@]5(C)CC[C@@]4(C)[C@]3(C)CC[C@H]2C1(C)C [Compound 5, 21-oxolup-18-en-3β-yl acetate]		> 30 µM	110 ± 5.2%	106 ± 3.2%	94.9 ± 4.3%	92.7 ± 4.7%	(98.4 ± 3.1) %	(94.8 ± 3.9) %	(90.7 ± 1.8) %	(88.9 ± 2.3) %										
CC(=O)O[C@H]1CC[C@]2(C)[C@H]3CC[C@@]4(C)[C@@H]5[C@@H](C)[C@H](C)CC[C@]5(C)CC[C@]4(C)C3=CC(=O)[C@H]2C1(C)C [Compound 2, 3β-acetoxybauer-7-en-6-one]	110 to 112 °C						(100.0 ± 1.3) %	(102.2 ± 0.3) %	(105.1 ± 0.3) %	(105.7 ± 2.0) %	95.6 ± 2.7%	101 ± 2.6%	86.5 ± 1.4%	71.4 ± 1.8%	> 30 µM					
CC(=O)O[C@H]1CC[C@]2(C)[C@H]3CC[C@@H]4[C@@]56O[C@]5(C(C)C)[C@@H](O)C[C@]6(C)CC[C@@]4(C)[C@]3(C)CC[C@H]2C1(C)C [Compound 4, 18β,19β-epoxy-21β-hydroxylupan-3β-yl acetate]		16.9 µM	83.6 ± 0.9%	76.8 ± 2.5%	66 ± 0.8%	35.4 ± 2.2%	(98.4 ± 0.9) %	(97.9 ± 0.3) %	(92.7 ± 1.0) %	(49.5 ± 0.7) %						exhibited NO inhibitory activities	did not exhibit cytotoxicity	some cytotoxicity		
CO[C@H]1C[C@]2(C)CC[C@]3(C)[C@H](CC[C@@H]4[C@@]5(C)CC[C@H](OC(C)=O)C(C)(C)[C@@H]5CC[C@]43C)[C@@]23O[C@@]13C(C)C [Compound 1, 18β,19β-epoxy-21β-methoxylupan-3β-yl acetate]		> 30 µM	94.8 ± 1.2%	101.4 ± 0.7%	90.5 ± 2.4%	95.7 ± 4.6%	(95.0 ± 0.7) %	(104.2 ± 1.3) %	(102.6 ± 0.7) %	(107.4 ± 2.0) %										
CNC(=N)NCCC[C@H](N)C(=O)O [L-NMMA, N^G-monomethyl-L-arginine acetate, reference compound]							(101.5 ± 0.9) %	(101.9 ± 0.4) %	(98.5 ± 0.9) %	(109.4 ± 0.5) %	93.3 ± 2.2%	91.4 ± 0.8%	68.9 ± 4.5%	43.1 ± 1.1%	23.9 µM					
CC(C)C1=CC(=O)C(C)CCC2(C)C(CCC3C4(C)CCC(=O)C(C)(C)C4CCC32C)C1=O (stereo not drawn) [Compound 7, officinatrione]							(98.3 ± 2.6) %	(103.0 ± 2.4) %	(99.7 ± 3.8) %	(99.8 ± 3.0) %	101 ± 1%	101 ± 2.5%	89.8 ± 1.1%	66.8 ± 0.8%	> 30 µM	exhibited NO inhibitory activities			no cytotoxicity	
CC(C)=CCC[C@@H](C)[C@@H]1CC[C@]2(C)C3=CC[C@H]4C(C)(C)C(=O)CC[C@]4(C)[C@H]3CC[C@@]12C [Compound 9, eupha-7,24-dien-3-one]		> 30 µM	98.4 ± 3.9%	100 ± 1.6%	109 ± 2%	108 ± 4.7%	(99.3 ± 0.2) %	(98.8 ± 0.2) %	(99.1 ± 0.4) %	(99.9 ± 0.6) %										
C=C(C)[C@@H]1CC[C@]2(CO)CC[C@]3(C)[C@H](CC[C@@H]4[C@@]5(C)CC[C@H](O)C(C)(C)[C@@H]5CC[C@]43C)[C@@H]12 [Compound 6, betulin]		17 µM	83.4 ± 1.5%	75 ± 3.2%	65.4 ± 0.5%	36.3 ± 0.6%	(99.8 ± 0.1) %	(93.7 ± 1.1) %	(76.7 ± 0.7) %	(66.7 ± 1.2) %						exhibited NO inhibitory activities		some cytotoxicity		did not exhibit cytotoxicity
C=C(C)C(=O)CC[C@@H](C)[C@@H]1CC[C@]2(C)C3=CC[C@H]4C(C)(C)[C@@H](OC(C)=O)CC[C@]4(C)[C@H]3CC[C@@]12C [Compound 10]		18.4 µM	93.8 ± 1.8%	81.6 ± 3.7%	67.5 ± 2.4%	37 ± 1.8%	(108.3 ± 4.7) %	(100.4 ± 0.2) %	(100.2 ± 0.1) %	(2.6 ± 0.4) %						exhibited NO inhibitory activities	did not exhibit cytotoxicity	some cytotoxicity		
CO[C@@H]1C=C2[C@@H]3CC(C)(C)CC[C@]3(C)CC[C@@]2(C)[C@]2(C)CC[C@H]3C(C)(C)C(=O)CC[C@]3(C)[C@@H]12 [Compound 8, 11α-methoxyolean-12-en-3-one]							(99.9 ± 0.1) %	(100.4 ± 0.1) %	(100.5 ± 0.2) %	(103.0 ± 1.6) %	102.9 ± 0.7%	105 ± 3.1%	90.2 ± 7.1%	64.1 ± 3.3%	> 30 µM	exhibited NO inhibitory activities			no cytotoxicity	
